Measured values published in patent publication US20250282812A1, “ANTIVIRAL NUCLEOSIDE ANALOGUE, AND PHARMACEUTICAL COMPOSITION AND USE THEREOF” (SHANGHAI INSTITUTE OF MATERIA MEDICA , CHINESE ACADEMY OF …, priority 2022, published 2025).
Counter-ions that a name gives are not always drawn.

Columns and labels:
[1] = tested on: respiratory syncytial virus (RSV) A long strain; test: In vitro activity against respiratory syncytial virus (CPE, CCK8, HEp-2 cells); assay type: cell-based; conditions: human respiratory syncytial virus, 120 h, MOI=0.02, 5 days; for inhibition at 5 µM: read-out: RSV (HEp-2) inhibition rate at a concentration of 5 μM
[2] = Cytotoxicity in HEp-2 cells (CCK8); conditions: human
[3] = tested on: influenza virus (IFV) A/California/07/2009 (H1N1) pdm09 strain; test: In vitro activity against influenza virus (CPE, CCK8, MDCK cells); assay type: cell-based; conditions: 120 h; for EC50: read-out: IFV (MDCK) EC50
in vitro = conditions: dog
SFTSV-Nluc = test: microbe, parasite or virus in culture; assay type: cell-based, severe fever with thrombocytopenia syndrome virus (SFTSV); conditions: Severe fever with thrombocytopenia syndrome virus, Vero, 48 h; for inhibition at 10 µM: read-out: Inhibition rate (10 μM)
[4] = Stability test of compounds in solutions at different pH values

| SMILES | EC50 [1] | CC50 at 5 days [2] | EC50 [3] | CC50 (in vitro) | also measured |
| --- | --- | --- | --- | --- | --- |
| CC(C)C(=O)OC[C@@]1(F)O[C@@H](n2ccc(=O)n(COC(=O)C3CCNCC3)c2=O)[C@H](OC(=O)C(C)C)[C@@H]1OC(=O)C(C)C [Compound X204] | 1520 nM | > 10000 nM | 650 nM | > 10000 nM |  |
| CC(C)C(=O)OCn1c(=O)ccn([C@@H]2O[C@](F)(CO)[C@H]3OC(=O)O[C@@H]23)c1=O [Compound X173] | 2620 nM | > 10000 nM | 460 nM | > 10000 nM |  |
| O=C(OCn1c(=O)ccn([C@@H]2O[C@](F)(COC(=O)c3cccnc3)[C@@H](O)[C@H]2O)c1=O)c1cccnc1 [Compound X231] | 1160 nM | > 10000 nM | 510 nM | > 10000 nM |  |
| O=C(OCn1c(=O)ccn([C@@H]2O[C@](F)(COC(=O)C3CCCCC3)[C@@H](O)[C@H]2O)c1=O)C1CCCCC1 [Compound X63] | 1510 nM | > 10000 nM | < 370 nM | > 10000 nM |  |
| CC(C)(C)C(=O)OC[C@@]1(F)O[C@@H](n2ccc(=O)n(COC(=O)c3cccnc3)c2=O)[C@H](O)[C@@H]1O [Compound X210] | 1880 nM | > 10000 nM | < 370 nM | > 10000 nM |  |
| CC(C)C(=O)OC[C@@]1(F)O[C@@H](n2ccc(=O)n(COC(=O)[C@@H]3CCCN3)c2=O)[C@H](OC(=O)C(C)C)[C@@H]1OC(=O)C(C)C [Compound X266] | 1020 nM | > 10000 nM | 894 nM | > 10000 nM | EC50 (SFTSV-Nluc): 2070 nM; inhibition at 10 µM (SFTSV-Nluc): 94.6% |
| CC(C)C(=O)OC[C@@]1(F)O[C@@H](n2ccc(=O)n(COC(=O)CCCN(C)C)c2=O)[C@@H]2OC(=O)O[C@@H]21 [Compound X185] |  | > 5000 nM |  |  | inhibition at 5 µM [1]: 94.7% |
| CCC(CC)C(=O)OC[C@@]1(F)O[C@@H](n2ccc(=O)n(COC(=O)c3cccnc3)c2=O)[C@H](O)[C@@H]1O [Compound X211] | 5820 nM | > 10000 nM | 3340 nM | > 10000 nM |  |
| CC(C)C(=O)OCn1c(=O)ccn([C@@H]2O[C@](F)(CO)[C@@H](O)[C@H]2O)c1=O [Compound X43] | 2320 nM | > 10000 nM | 500 nM | > 10000 nM |  |
| O=C(OCn1c(=O)ccn([C@@H]2O[C@](F)(COC(=O)c3cccnc3)[C@@H](OC(=O)c3cccnc3)[C@H]2OC(=O)c2cccnc2)c1=O)c1cccnc1 [Compound X232] | 1130 nM | > 10000 nM | 850 nM | > 10000 nM |  |
| CCCCCCCCCCCCCCCC(=O)OCn1c(=O)ccn([C@@H]2O[C@](F)(COC(=O)CCCCCCCCCCCCCCC)[C@@H](O)[C@H]2O)c1=O [Compound X200] | 1170 nM | > 10000 nM | 2290 nM | > 10000 nM |  |
| CCN(CC)CC(=O)OCn1c(=O)ccn([C@@H]2O[C@](F)(COC(=O)C(C)C)[C@@H](OC(=O)C(C)C)[C@H]2OC(=O)C(C)C)c1=O [Compound X260] | 2340 nM | > 10000 nM | < 370 nM | > 10000 nM |  |
| CC(C)C(=O)OCn1c(=O)ccn([C@@H]2O[C@](F)(COC(=O)C(C)C)[C@H]3OC(=O)O[C@@H]23)c1=O [Compound X113] | 1970 nM | > 10000 nM | < 370 nM | > 10000 nM |  |
| CC(C)C(=O)OC[C@@]1(F)O[C@@H](n2ccc(=O)n(COC(=O)c3cccnc3)c2=O)[C@H](O)[C@@H]1O [Compound X207] | 4090 nM | > 10000 nM | 380 nM | > 10000 nM | EC50 (SFTSV-Nluc): 1890 nM; inhibition at 10 µM (SFTSV-Nluc): 91.8% |
| CC(C)C(=O)OC[C@@]1(F)O[C@@H](n2ccc(=O)n(COC(=O)c3cccnc3)c2=O)[C@@H]2OC(=O)O[C@@H]21 [Compound X214] | 2090 nM | > 10000 nM | < 370 nM | > 10000 nM |  |
| CCC(CC)C(=O)OC[C@@]1(F)O[C@@H](n2ccc(=O)n(COC(=O)C(C)C)c2=O)[C@H](O)[C@@H]1O [Compound X57] |  | > 5000 nM |  | > 5000 nM | inhibition at 5 µM [1]: 50.3%; inhibition at 5 µM ([3]; read-out: IFV (MDCK) inhibition rate at a concentration of 5 μM): 90.5% |
| CCC(CC)C(=O)OCn1c(=O)ccn([C@@H]2O[C@](F)(COC(=O)c3cccnc3)[C@@H](O)[C@H]2O)c1=O [Compound X223] | 2140 nM | > 10000 nM | 820 nM | > 10000 nM |  |
| CC(C)C(=O)OCn1c(=O)ccn([C@@H]2O[C@](F)(COC(=O)C(C)C)[C@@H](OC(=O)C(C)C)[C@H]2OC(=O)C(C)C)c1=O [Compound X201] | 1510 nM | > 10000 nM | 560 nM | > 10000 nM |  |
| CCC(CC)C(=O)OCn1c(=O)ccn([C@@H]2O[C@](F)(COC(=O)C(C)C)[C@@H](O)[C@H]2O)c1=O [Compound X52] | 4850 nM | > 10000 nM | 570 nM | > 10000 nM | Content reduction (%) ([4]; buffered saline solution pH 4.0, 3 h): 0.9%; Content reduction (%) ([4]; buffered saline solution pH 4.0, 6 h): 1.4%; Content reduction (%) ([4]; buffered saline solution pH 4.0, 9 h): 1.9%; Content reduction (%) ([4]; buffered saline solution pH 4.0, 12 h): 2.2%; Content reduction (%) ([4]; buffered saline solution pH 4.0, 15 h): 2.6%; Content reduction (%) ([4]; buffered saline solution pH 4.0, 18 h): 3.0%; Content reduction (%) ([4]; buffered saline solution pH 4.0, 21 h): 3.4%; Content reduction (%) ([4]; buffered saline solution pH 4.0, 24 h): 3.6%; Content reduction (%) ([4]; buffered saline solution pH 6.8, 3 h): 1.2%; Content reduction (%) ([4]; buffered saline solution pH 6.8, 6 h): 2.3%; Content reduction (%) ([4]; buffered saline solution pH 6.8, 9 h): 3.3%; Content reduction (%) ([4]; buffered saline solution pH 6.8, 12 h): 4.3%; Content reduction (%) ([4]; buffered saline solution pH 6.8, 15 h): 5.4%; Content reduction (%) ([4]; buffered saline solution pH 6.8, 18 h): 6.6%; Content reduction (%) ([4]; buffered saline solution pH 6.8, 21 h): 7.6%; Content reduction (%) ([4]; buffered saline solution pH 6.8, 24 h): 8.7% |
| O=C(/C=C/c1ccccc1)OCn1c(=O)ccn([C@@H]2O[C@](F)(COC(=O)/C=C/c3ccccc3)[C@@H](O)[C@H]2O)c1=O [Compound X198] | 2450 nM | > 10000 nM |  |  |  |
| CC(C)=CCOc1ccn([C@@H]2O[C@](F)(COC(=O)C(C)C)[C@@H](O)[C@H]2O)c(=O)n1 [Compound X134] | 1200 nM | > 10000 nM | 460 nM | > 10000 nM |  |
| CC(C)C(=O)OCn1c(=O)ccn([C@@H]2O[C@](F)(COC(=O)c3cccnc3)[C@@H](O)[C@H]2O)c1=O [Compound X208] | 1090 nM |  | < 370 nM | > 10000 nM |  |
| CC(C)C(=O)OC[C@@]1(F)O[C@@H](n2ccc(=O)n(COC(=O)C3CCN(C)CC3)c2=O)[C@H](OC(=O)C(C)C)[C@@H]1OC(=O)C(C)C [Compound X205] | 2560 nM | > 10000 nM | < 370 nM | > 10000 nM |  |
| CCC(=O)OC[C@@]1(F)O[C@@H](n2ccc(=O)n(COC(=O)c3cccnc3)c2=O)[C@H](OC(=O)CC)[C@@H]1OC(=O)CC [Compound X220] | 1290 nM | > 10000 nM | 819 nM | > 10000 nM |  |
| CC(C)C(=O)OC[C@@]1(F)O[C@@H](n2ccc(=O)n(COC(=O)CN(C)C)c2=O)[C@H](OC(=O)C(C)C)[C@@H]1OC(=O)C(C)C [X100 hydrochloride] | 1790 nM | > 10000 nM | 410 nM | > 10000 nM |  |
| O=C1O[C@H]2[C@H](n3ccc(=O)n(COC(=O)c4cccnc4)c3=O)O[C@](F)(COC(=O)c3cccnc3)[C@H]2O1 [Compound X233] | 1200 nM | > 10000 nM | 460 nM | > 10000 nM |  |
| CC(C)C(=O)O[C@H]1[C@H](n2ccc(=O)n(COC(=O)c3cccnc3)c2=O)O[C@](F)(COC(=O)c2cccnc2)[C@H]1OC(=O)C(C)C [Compound X257] | 1640 nM | > 10000 nM | 1380 nM | > 10000 nM |  |
